Measured values reported in ChEMBL document CHEMBL5465560, “Selectivity Literature for EUbOPEN Chemogenomic Library” (2024).

Assays:
[1] = target: Dual specificity tyrosine-phosphorylation-regulated kinase 1B (Homo sapiens, UniProt Q9Y463); assay: Selectivity interaction (KinomeScan (DiscoverX)) EUB0001049a DYRK1B; conditions: at 1 µM
[2] = target: Cyclin-dependent kinase 7 (Homo sapiens, UniProt P50613); assay: Selectivity interaction (KinomeScan (DiscoverX)) EUB0000229b CDK7; conditions: at 10 µM
[3] = target: Phosphatidylinositol 4,5-bisphosphate 3-kinase catalytic subunit gamma isoform (Homo sapiens) (UniProt P48736); assay: Selectivity interaction (KinomeScan (DiscoverX)) EUB0000877a PIK3CG; conditions: at 10 µM
[4] = target: Mitogen-activated protein kinase 9 (Homo sapiens, UniProt P45984); conditions: at 10 µM
[5] = system: Mast/stem cell growth factor receptor Kit (Homo sapiens), P10721 [D816V]; assay: (§1) Selectivity interaction (KinomeScan (DiscoverX)) EUB0000595a KIT; conditions: at 10 µM
[6] = system: Mast/stem cell growth factor receptor Kit (Homo sapiens), P10721 [V559D,V654A]; assay: as §1; conditions: at 10 µM
[7] = system: Mast/stem cell growth factor receptor Kit (Homo sapiens), P10721 [V559D]; assay: as §1; conditions: at 10 µM
[8] = system: Mast/stem cell growth factor receptor Kit (Homo sapiens), P10721 [L576P]; assay: as §1; conditions: at 10 µM
[9] = system: Mast/stem cell growth factor receptor Kit (Homo sapiens), P10721 [D816H]; assay: as §1; conditions: at 10 µM
[10] = system: Mast/stem cell growth factor receptor Kit (Homo sapiens), P10721 [V559D,T670I]; assay: as §1; conditions: at 10 µM
[11] = target: Protein kinase C gamma type (Homo sapiens) (UniProt P05129); assay: Selectivity interaction (Kinase screening (Upstate/Millipore)) EUB0000604a PRKCG
[12] = Selectivity interaction (KinomeScan (DiscoverX)) EUB0000045b CDK2H; conditions: at 1 µM
[13] = target: T1, Mitogen-activated protein kinase 13 (Homo sapiens) (UniProt O15264); conditions: at 10 µM
T1 sequence (whole entry): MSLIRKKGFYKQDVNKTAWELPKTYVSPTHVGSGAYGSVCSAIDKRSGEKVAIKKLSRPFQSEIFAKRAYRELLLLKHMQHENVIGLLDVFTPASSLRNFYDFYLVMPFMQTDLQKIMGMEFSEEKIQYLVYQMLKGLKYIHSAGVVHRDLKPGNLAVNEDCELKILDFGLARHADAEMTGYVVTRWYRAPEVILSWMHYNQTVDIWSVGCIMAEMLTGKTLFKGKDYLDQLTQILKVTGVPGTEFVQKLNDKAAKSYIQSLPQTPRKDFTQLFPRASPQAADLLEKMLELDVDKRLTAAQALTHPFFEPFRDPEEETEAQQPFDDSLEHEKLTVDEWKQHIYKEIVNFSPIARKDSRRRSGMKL

[14] = target: T2, Mitogen-activated protein kinase kinase kinase 13 (Homo sapiens) (UniProt O43283); assay: Selectivity interaction (KinomeScan (DiscoverX)) EUB0000695a MAP3K13; conditions: at 100 nM
T2 sequence (whole entry): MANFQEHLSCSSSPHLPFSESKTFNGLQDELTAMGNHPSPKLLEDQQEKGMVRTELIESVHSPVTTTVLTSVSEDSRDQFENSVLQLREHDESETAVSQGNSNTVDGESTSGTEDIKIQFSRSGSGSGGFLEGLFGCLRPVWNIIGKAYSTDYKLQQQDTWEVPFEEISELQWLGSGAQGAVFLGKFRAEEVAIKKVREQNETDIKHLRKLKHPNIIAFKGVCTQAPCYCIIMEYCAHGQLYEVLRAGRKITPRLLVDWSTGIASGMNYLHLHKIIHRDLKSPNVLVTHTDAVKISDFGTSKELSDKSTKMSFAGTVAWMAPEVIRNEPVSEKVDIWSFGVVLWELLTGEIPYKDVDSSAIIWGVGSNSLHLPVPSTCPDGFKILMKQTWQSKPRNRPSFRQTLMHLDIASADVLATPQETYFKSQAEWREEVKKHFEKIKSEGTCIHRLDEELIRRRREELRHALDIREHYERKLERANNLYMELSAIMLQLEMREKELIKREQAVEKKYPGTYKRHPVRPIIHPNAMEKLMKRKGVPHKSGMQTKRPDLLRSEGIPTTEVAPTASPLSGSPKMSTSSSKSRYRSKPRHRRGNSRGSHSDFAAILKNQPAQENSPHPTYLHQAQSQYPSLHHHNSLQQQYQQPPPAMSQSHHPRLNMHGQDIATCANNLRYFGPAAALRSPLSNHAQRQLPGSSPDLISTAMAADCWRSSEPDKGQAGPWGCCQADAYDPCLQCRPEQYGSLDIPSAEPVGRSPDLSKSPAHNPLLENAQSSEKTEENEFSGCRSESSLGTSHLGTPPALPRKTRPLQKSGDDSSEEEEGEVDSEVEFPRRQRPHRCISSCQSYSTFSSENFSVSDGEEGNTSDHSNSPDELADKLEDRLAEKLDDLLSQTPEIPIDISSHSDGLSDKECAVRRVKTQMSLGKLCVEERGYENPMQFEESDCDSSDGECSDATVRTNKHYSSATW

[15] = target: T3, Alpha-2C adrenergic receptor (Homo sapiens) (UniProt P18825); assay: Selectivity interaction (Panel of kinases, GPCRs, ion channels and transporters (enzymatic assay)) EUB0000266bCl ADRA2C
T3 sequence (whole entry): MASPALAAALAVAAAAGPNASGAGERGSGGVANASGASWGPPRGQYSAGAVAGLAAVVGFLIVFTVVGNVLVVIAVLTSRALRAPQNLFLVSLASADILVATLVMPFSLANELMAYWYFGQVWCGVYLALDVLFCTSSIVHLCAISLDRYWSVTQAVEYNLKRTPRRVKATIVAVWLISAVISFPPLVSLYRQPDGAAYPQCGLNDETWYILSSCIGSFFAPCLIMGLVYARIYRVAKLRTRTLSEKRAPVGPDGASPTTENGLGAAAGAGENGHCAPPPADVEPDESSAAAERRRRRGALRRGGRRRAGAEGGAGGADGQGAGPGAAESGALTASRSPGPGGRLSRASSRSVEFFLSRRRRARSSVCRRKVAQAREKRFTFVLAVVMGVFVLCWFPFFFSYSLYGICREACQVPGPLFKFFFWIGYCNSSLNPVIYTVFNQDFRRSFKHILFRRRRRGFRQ

[16] = target: Casein kinase I isoform gamma-2 (Homo sapiens) (UniProt P78368); assay: Selectivity interaction (SelectScreen profiling (Invitrogen)) EUB0000607a CSNK1G2; conditions: at 2 µM
Casein kinase I isoform gamma-2 (Homo sapiens), sequence (P78368 whole entry, looked up, canonical isoform): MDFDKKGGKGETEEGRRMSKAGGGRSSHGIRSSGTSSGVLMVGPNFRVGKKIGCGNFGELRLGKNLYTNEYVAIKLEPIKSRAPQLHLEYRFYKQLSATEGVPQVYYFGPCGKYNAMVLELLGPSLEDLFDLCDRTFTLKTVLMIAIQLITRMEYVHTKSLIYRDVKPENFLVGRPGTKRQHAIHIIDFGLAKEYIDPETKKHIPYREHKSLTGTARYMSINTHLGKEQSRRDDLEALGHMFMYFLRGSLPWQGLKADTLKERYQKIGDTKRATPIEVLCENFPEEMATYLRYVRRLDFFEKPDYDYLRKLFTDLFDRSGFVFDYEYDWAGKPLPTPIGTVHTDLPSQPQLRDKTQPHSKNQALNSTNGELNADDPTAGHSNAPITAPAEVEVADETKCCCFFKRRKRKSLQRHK

Mast/stem cell growth factor receptor Kit (Homo sapiens), P10721 [D816H], sequence (P10721 whole entry D816H): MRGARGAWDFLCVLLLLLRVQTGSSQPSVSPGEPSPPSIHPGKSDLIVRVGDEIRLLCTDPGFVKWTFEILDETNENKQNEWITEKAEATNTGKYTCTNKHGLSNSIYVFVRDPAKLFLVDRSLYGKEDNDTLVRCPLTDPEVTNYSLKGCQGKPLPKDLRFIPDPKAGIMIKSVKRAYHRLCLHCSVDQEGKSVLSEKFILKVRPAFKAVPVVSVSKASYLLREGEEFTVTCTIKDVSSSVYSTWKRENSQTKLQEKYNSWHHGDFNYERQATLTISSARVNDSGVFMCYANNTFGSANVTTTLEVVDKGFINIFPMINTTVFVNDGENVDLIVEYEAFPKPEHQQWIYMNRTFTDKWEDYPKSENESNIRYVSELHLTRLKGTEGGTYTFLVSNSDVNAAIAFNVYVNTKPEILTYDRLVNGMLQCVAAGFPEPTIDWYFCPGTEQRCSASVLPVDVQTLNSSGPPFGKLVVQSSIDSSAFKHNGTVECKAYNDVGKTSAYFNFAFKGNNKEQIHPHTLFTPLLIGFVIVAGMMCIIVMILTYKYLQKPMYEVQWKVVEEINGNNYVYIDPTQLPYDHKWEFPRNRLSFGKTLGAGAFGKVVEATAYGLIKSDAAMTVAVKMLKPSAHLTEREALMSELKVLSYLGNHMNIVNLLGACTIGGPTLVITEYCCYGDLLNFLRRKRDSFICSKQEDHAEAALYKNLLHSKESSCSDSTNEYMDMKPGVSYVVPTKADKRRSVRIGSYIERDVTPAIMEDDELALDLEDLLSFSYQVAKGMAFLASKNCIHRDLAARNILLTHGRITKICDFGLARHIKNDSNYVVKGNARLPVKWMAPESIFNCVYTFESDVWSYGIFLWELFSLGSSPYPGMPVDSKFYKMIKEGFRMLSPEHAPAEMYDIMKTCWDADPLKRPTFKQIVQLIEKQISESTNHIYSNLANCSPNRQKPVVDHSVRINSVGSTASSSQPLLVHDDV
Mast/stem cell growth factor receptor Kit (Homo sapiens), P10721 [V559D,T670I], sequence (P10721 whole entry V559D/T670I): as the sequence (P10721 whole entry D816H) above, with V559D, T670I, H816D counted along it
Mast/stem cell growth factor receptor Kit (Homo sapiens), P10721 [L576P], sequence (P10721 whole entry L576P): as the sequence (P10721 whole entry D816H) above, with L576P, H816D counted along it
Mast/stem cell growth factor receptor Kit (Homo sapiens), P10721 [V559D], sequence (P10721 whole entry V559D): as the sequence (P10721 whole entry D816H) above, with V559D, H816D counted along it

With `COc1cc(Nc2nc(C)cc(-c3cnn4nc(OC)ccc34)n2)cc(C(F)(F)F)c1` as the compound, how does the % of control [1] read?
The % of control was 100%.

With `COc1cc(N(C)c2ccnc3ccc(C(F)(F)F)cc23)cc(OC)c1OC` as the compound, how does the % binding [2] read?
Its % binding is 57%.

For `CCC(=O)N1CC[C@H](Nc2ncnc3c2CN(c2cnc(OC)c(C(F)(F)F)c2)CC3)C1` [LENIOLISIB], which % of inhibition [3] is on record?
Its % of inhibition is 98%.

For `CCN(CC)CCCCNc1ncc2cc(-c3cc(OC)cc(OC)c3)c(NC(=O)NC(C)(C)C)nc2n1`, which % of control [4] is on record?
The % of control was 100%.

With `COCC(=O)NC/C=C/c1ccc2ncnc(Nc3ccc(Oc4ccc(C)nc4)c(C)c3)c2c1` [CP-724714] as the compound, how does the % of control [5] read?
Its % of control is 89%.

What about the % of control [6] of the same compound?
The % of control was 88%.

And the % of control [7]?
The % of control was 17%.

What about the % of control [8] of the same compound?
Its % of control is 54%.

What about the % of control [9] of the same compound?
Its % of control is 100%.

What about the % of control [10] of the same compound?
Its % of control is 100%.

With `Cc1cnc(Nc2ccc(F)cc2Cl)nc1-c1c[nH]c(C(=O)N[C@H](CO)c2cccc(Cl)c2)c1` as the compound, how does the % of inhibition [11] read?
The % of inhibition was 11%.

Which % of control [12] does the source give for `C=CC(=O)Nc1cc(-n2c(=O)ccc3cnc4ccc(-c5ccc(NS(C)(=O)=O)cc5)cc4c32)ccc1C` here?
Its % of control is 100%.

Which % of control [13] does the source give for `Cc1cc([C@@H](C)Nc2ccccc2C(=O)O)c2nc(N3CCOCC3)cc(=O)n2c1` [AZD-6482] here?
The % of control was 87%.

Which % of control [14] does the source give for `Cc1cc(F)c(C(=O)Nc2cccc(-c3nncn3C(C)C)n2)cc1-n1cnc(C2CC2)c1` here?
The % of control was 97%.

For `CCn1c(-c2nc3cc(C(=O)N4CCCC(N)C4)ccc3n2C)cc2ccccc21` (stereo unspecified), which pXC50 [15] is on record?
Its pXC50 is less than 4.5 M.

With `CNC(=O)Nc1ccc(-c2nc(N3CC4CCC(C3)O4)c3cnn(C4CCC5(CC4)OCCO5)c3n2)cc1` as the compound, how does the % of inhibition [16] read?
The % of inhibition was -6%.
